The values below come from ChEMBL document CHEMBL3259720, “Design of novel multiple-acting ligands towards SERT and 5-HT2C receptors” (Bioorg Med Chem Lett, 2014).

What is called inhibition is the change of the read-out against control, counted positive when it falls. Broadly, the Ki is a dissociation constant, usually derived from enzyme kinetics or from competition with a known ligand. A higher Ki goes with lower affinity. The term Papp A→B denotes the apparent permeability from the apical to the basolateral side of a cell layer. Usually efflux ratio stands for the permeability from basolateral to apical divided by that in the opposite direction, in the common usage.

The target in series [1] is Sodium-dependent serotonin transporter (Rattus norvegicus) (UniProt P31652). The series can be described thus: Displacement of [3H]citalopram from SERT in Sprague-Dawley rat whole brain membranes at 300 nM after 1 hr by liquid scintillation spectrophotometric analysis relative to control. Type of series: tissue-based. Conditions: Membrane.
In series [2] the target is T1, 5-hydroxytryptamine receptor 2C (Rattus norvegicus, UniProt P08909).
T1 sequence (P08909 whole entry): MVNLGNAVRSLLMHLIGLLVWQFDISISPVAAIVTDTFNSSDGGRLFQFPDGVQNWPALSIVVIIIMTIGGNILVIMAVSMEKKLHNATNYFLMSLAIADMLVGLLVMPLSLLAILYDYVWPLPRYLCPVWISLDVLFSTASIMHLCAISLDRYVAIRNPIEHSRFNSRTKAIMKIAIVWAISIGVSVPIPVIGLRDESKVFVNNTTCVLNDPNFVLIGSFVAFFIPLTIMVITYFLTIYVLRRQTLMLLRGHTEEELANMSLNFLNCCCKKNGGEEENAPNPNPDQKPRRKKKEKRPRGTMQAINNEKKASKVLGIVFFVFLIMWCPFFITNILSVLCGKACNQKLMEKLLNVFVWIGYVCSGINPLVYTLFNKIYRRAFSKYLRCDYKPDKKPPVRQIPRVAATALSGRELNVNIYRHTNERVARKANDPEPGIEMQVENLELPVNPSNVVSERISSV
The series can be described thus: biochemical.
Description: Displacement of [3H]mesulergine from 5-HT2C receptor in Sprague-Dawley rat choroid plexus membranes after 30 mins by liquid scintillation spectrophotometric analysis

For series [3], the target named is Sodium-dependent serotonin transporter (Rattus norvegicus, UniProt P31652). The series can be described thus: biochemical.
Description: Displacement of [3H]citalopram from SERT in Sprague-Dawley rat whole brain membranes after 1 hr by liquid scintillation spectrophotometric analysis
For series [4], the target named is T2, 5-hydroxytryptamine receptor 2C (Rattus norvegicus) (UniProt P08909).
T2 sequence (whole entry): T1 sequence (P08909 whole entry)
The series can be described thus: Displacement of [3H]mesulergine from 5-HT2C receptor in Sprague-Dawley rat choroid plexus membranes at 1000 nM after 30 mins by liquid scintillation spectrophotometric analysis relative to control. Conditions: Membrane. For orientation: Displacement assays read how much labelled ligand stays bound in the presence of the test substance.

The next series relates to Liver microsome. The series can be described thus: Intrinsic clearance in human liver microsomes measured per gram of tissue at 2.5 uM after 20 mins. Type of series: ADME. A general note: Liver microsomes are vesicles of endoplasmic reticulum, rich in cytochrome P450 enzymes.
The next series relates to Liver. The series can be described thus: Intrinsic clearance in mouse liver microsomes measured per gram of tissue at 2.5 uM after 20 mins. Type of series: ADME.
A short description of series [5]: Apparent permeability from apical to basolateral side in vinblastine-treated human Caco2 cells at 3 to 50 uM. Type of series: ADME, cell-based. The settings on record: Caco-2. In general terms: Passage across Caco-2 layers is used to estimate intestinal permeability.
A further series is described as follows: in vitro. The settings on record: human, Caco-2.

Sodium-dependent serotonin transporter (Rattus norvegicus), sequence (P31652 whole entry): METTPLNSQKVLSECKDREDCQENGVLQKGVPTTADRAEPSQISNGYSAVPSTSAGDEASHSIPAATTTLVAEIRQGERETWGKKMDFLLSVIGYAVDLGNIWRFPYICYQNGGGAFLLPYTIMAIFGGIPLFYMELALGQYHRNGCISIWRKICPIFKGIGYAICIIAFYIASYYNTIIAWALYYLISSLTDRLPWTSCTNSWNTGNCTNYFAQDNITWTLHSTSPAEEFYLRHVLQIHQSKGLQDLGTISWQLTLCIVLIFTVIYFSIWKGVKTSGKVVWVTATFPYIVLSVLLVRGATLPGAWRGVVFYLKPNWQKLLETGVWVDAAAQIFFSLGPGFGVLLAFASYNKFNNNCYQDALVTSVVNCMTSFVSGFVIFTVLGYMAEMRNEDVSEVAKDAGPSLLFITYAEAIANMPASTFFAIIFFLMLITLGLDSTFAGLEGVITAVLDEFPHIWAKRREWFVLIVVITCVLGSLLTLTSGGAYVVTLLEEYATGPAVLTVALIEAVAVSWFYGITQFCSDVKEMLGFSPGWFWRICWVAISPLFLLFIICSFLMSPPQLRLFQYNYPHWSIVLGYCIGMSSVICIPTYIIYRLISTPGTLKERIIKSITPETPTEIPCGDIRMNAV
Sodium-dependent serotonin transporter, sequence (P31652 whole entry): as above
Description for in vitro: Efflux ratio of apparent permeability from basolateral to apical over apical to basolateral side in vinblastine-treated human Caco2 cells at 3 to 50 uM

For `COc1cc(NC(=O)Nc2ccc(Cl)c(Cl)c2)ccc1OC(CCN(C)C)c1ccccc1` (centres undefined), in series [1], the inhibition came to 38%. For the same compound, the Ki in series [2] amounted to 2.8 nM.

With `Cc1ccc(NC(=O)Nc2ccc(OC(CCN(C)C)c3ccccc3)cc2)cc1I` (centres undefined), the Ki came to 121 nM in series [3] and 2.4 nM in series [2].

For `CN(C)CCC(Oc1cccc(NC(=O)Nc2ccc3ccccc3c2)c1)c1ccccc1` (centres undefined), the inhibition constant Ki in series [3] is 28.2 nM; in series [2], 87.6 nM.

Regarding `CN(C)CCC(Oc1ccc(NC(=O)Nc2ccc3ccccc3c2)cn1)c1ccccc1` (centres undefined), the values for the inhibition in series [1] and in series [4] were 3% and 43%, respectively.

For the compound `CN(C)CCC(Oc1ccc(NC(=O)Nc2ccc3nccn3c2)cc1)c1ccccc1` (centres undefined), the inhibition in series [4] is 53%. The compound further registered a Ki in series [3] of 4 nM.

Turning to `COc1cc(NC(=O)Nc2ccc(OC(CCN(C)C)c3ccccc3)cc2)ccc1Cl` (centres undefined), the Ki came out at 31 nM in series [3] and 16.3 nM in series [2].

For `CN(C)CCC(Oc1ccc(NC(=O)Nc2ccc3c(ccn3C)c2)cn1)c1ccccc1` (centres undefined), the values for the inhibition in series [1] and in series [4] were -5% and 7%, respectively.

On to `COc1ccc(NC(=O)Nc2ccc(Cl)c(Cl)c2)cc1OC(CCN(C)C)c1ccccc1` (centres undefined), for which the inhibition in series [1] was -9%. In series [2], the Ki was determined as 197 nM.

Consider `COc1ccc(C(=O)Nc2ccc(OC(CCN(C)C)c3ccccc3)cc2)cc1C(F)(F)F` (centres undefined), for which the Ki was determined as 22.3 nM in series [3] and 90.6 nM in series [2].

With `COc1ccc(C(=O)Nc2ccc(OC(CCN(C)C)c3ccccc3)cc2)cc1Cl` (centres undefined), the Ki in series [3] came to 15.9 nM; in series [2], 152 nM.

Take `Cc1ccc(NC(=O)Nc2ccc(OC(CCN(C)C)c3ccccc3)cc2)cc1Cl` (centres undefined): the CLH in the series with Liver microsome was 0.06 mL/min; in the series on Liver it was 0.9 mL/min. For the same compound, the Ki is 61.4 nM in series [3] and 0.6 nM in series [2].

For `O=C(Nc1cccnc1)Nc1ccc2ccccc2c1`, the Ki in series [3] is greater than 10000 nM; in series [2], 6.2 nM.

Consider `CN(C)CCC(Oc1ccc(NC(=O)Nc2ccc3c(ccn3C)c2)cc1)c1ccccc1` (centres undefined), for which the Papp A→B at 50 µM in series [5] was 5.8 ×10⁻⁶ cm/s. Also, the efflux ratio at 50 µM in the series “in vitro” was found to be 5.3. The Ki in series [3] amounted to 9 nM; in series [2], 15.9 nM.

On to `CN(C)CCC(Oc1ccc(N2CCN(c3ccc(Cl)c(Cl)c3)C2=O)cc1)c1ccccc1` (centres undefined), for which the Ki in series [3] was 102 nM; in series [2] it was 10.2 nM.

`Cc1ccc(C(=O)Nc2ccc(OC(CCN(C)C)c3ccccc3)cc2)cc1Cl` (centres undefined) showed a CLH in the series with Liver microsome of 0.59 mL/min. Also, the Papp A→B at 50 µM in series [5] was determined as 19.9 ×10⁻⁶ cm/s. In addition, the efflux ratio at 50 µM in “in vitro” came to 0.7. Moreover, the inhibition constant Ki in series [3] was 34.6 nM; in series [2], 45.3 nM.

In the case of `Cn1ccc2cc(NC(=O)Nc3cccnc3)ccc21`, the values for the Ki in series [3] and in series [2] were greater than 10000 nM and 124 nM, respectively.

Turning to `COc1ccc(NC(=O)Nc2ccc(OC(CCN(C)C)c3ccccc3)cc2)cc1Cl` (centres undefined), the CLH in the series with Liver microsome is 0.68 mL/min. The Papp A→B at 50 µM in series [5] turned out to be 7.5 ×10⁻⁶ cm/s. In the series “in vitro”, the efflux ratio at 50 µM is 2.2. Further, the Ki was found to be 41.1 nM in series [3] and 11.2 nM in series [2].

In turn, `CN(C)CCC(Oc1ccc(NC(=O)Nc2ccc3ccccc3c2)cc1)c1ccccc1` (centres undefined) registered a CLH in the series on Liver of 0.03 mL/min. For the same compound, the values for the Ki in series [3] and in series [2] were 62 nM and 1.7 nM, respectively.

For `CN(C)CCC(Oc1ccc(NC(=O)Nc2ccc(Cl)c(Cl)c2)cc1)c1ccccc1` (centres undefined), the figures for the Ki in series [3] and in series [2] were 135 nM and 2.9 nM, respectively.

For the compound `CCn1ccc2cc(NC(=O)Nc3ccc(OC(CCN(C)C)c4ccccc4)cc3)ccc21` (centres undefined), the figures for the Ki in series [3] and in series [2] were 37.9 nM and 10.7 nM, respectively.

As for `CN(C)CCC(Oc1ccc(NC(=O)Nc2ccc3ccn(C)c3c2)cc1)c1ccccc1` (centres undefined), the Ki was determined as 19.3 nM in series [3] and 10.9 nM in series [2].

`CN(C)CCC(Oc1ccc(NC(=O)Nc2ccc3ccn(C)c3c2)cn1)c1ccccc1` (centres undefined): the inhibition amounted to 1% in series [1] and 15% in series [4].

For `COc1ccc(NC(=O)Nc2ccc(OC(CCN(C)C)c3ccccc3)cc2)cc1C(F)(F)F` (centres undefined), the figures for the Ki in series [3] and in series [2] were 96.4 nM and 3.3 nM, respectively.

Turning to `CSc1ccc(NC(=O)Nc2ccc(OC(CCN(C)C)c3ccccc3)cc2)cc1C(F)(F)F` (centres undefined), the inhibition in series [1] is 31%. The Ki in series [2] amounted to 3.4 nM.

As for `CN(C)CCC(Oc1ccc(NC(=O)N(C)c2ccc(Cl)c(Cl)c2)cc1)c1ccccc1` (centres undefined), the efflux ratio at 50 µM in “in vitro” was 1.6. In addition, the Ki in series [3] turned out to be 89.6 nM; in series [2] it was 78.9 nM.

As for `CN(C)CCC(Oc1ccc(NC(=O)c2ccc(Cl)c(Cl)c2)cc1)c1ccccc1` (centres undefined), the CLH with Liver microsome was found to be 0.65 mL/min. Also, the Papp A→B at 50 µM in series [5] worked out at 11.3 ×10⁻⁶ cm/s. For the same compound, the efflux ratio at 50 µM in “in vitro” came out at 1.1. Also, the Ki in series [3] came to 65.3 nM; in series [2] it was 57.1 nM.

In the case of `CN(C)CCC(Oc1cccc(NC(=O)Nc2ccc3c(ccn3C)c2)c1)c1ccccc1` (centres undefined), the Ki in series [3] is 9.4 nM; in series [2], 652 nM.
